Measured values: PubChem BioAssay (NCI)
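The compound was tested at five concentrations on cells cultured in 96-well plates, with a 48-hour exposure period. TGI is the concentration that stops growth completely.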

What was measured:
Assay in all cases: inhibition of tumour cell growth, NCI panel, 48 h
[1] = system: BT-549 breast
[2] = system: HS 578T breast
[3] = system: MDA-MB-231 breast
[4] = system: MOLT-4 leukemia
[5] = system: SK-OV-3 ovarian
[6] = system: HOP-92 NSCLC
[7] = system: EKVX NSCLC
[8] = system: HCT-15 colon
[9] = system: MCF7 breast
[10] = system: HOP-62 NSCLC
[11] = system: MDA-N

Structure (SMILES): COC(=O)C1=C(C)NC(C)=C(C(=O)OC)C1c1nc2sccn2c1[N+](=O)[O-]
- TGI [1]: > 100 µM
- TGI [2]: > 100 µM
- TGI [3]: > 100 µM
- TGI [4]: > 100 µM
- TGI [5]: > 100 µM
- TGI [6]: > 100 µM
- TGI [7]: > 100 µM
- TGI [8]: > 100 µM
- TGI [9]: > 100 µM
- TGI [10]: > 100 µM

Structure (SMILES): CCOc1ccc(/C=C2/C(=O)N=C(NC(C)=O)N2C)cc1
- TGI [1]: > 100 µM
- TGI [3]: > 100 µM
- TGI [4]: > 100 µM
- TGI [5]: > 100 µM
- TGI [6]: > 100 µM
- TGI [7]: > 100 µM
- TGI [8]: > 100 µM
- TGI [9]: > 100 µM
- TGI [11]: > 100 µM
- TGI [10]: > 100 µM

Structure (SMILES): COc1ccc(/C=C2\N=C(SC)NC2=O)cc1
- TGI [1]: > 100 µM
- TGI [2]: > 100 µM
- TGI [3]: > 100 µM
- TGI [4]: > 100 µM
- TGI [5]: > 100 µM
- TGI [7]: > 100 µM
- TGI [8]: > 100 µM
- TGI [9]: > 100 µM
- TGI [11]: > 100 µM
- TGI [10]: > 100 µM

Structure (SMILES): [N-]=[N+]=NC1=C(c2ccccn2)C(=O)c2cccc3cccc1c23
- TGI [1]: 67.2 µM
- TGI [2]: > 100 µM
- TGI [3]: > 100 µM
- TGI [4]: 6.16 µM
- TGI [5]: > 100 µM
- TGI [6]: > 100 µM
- TGI [8]: > 100 µM
- TGI [9]: > 100 µM
- TGI [11]: > 100 µM
- TGI [10]: > 100 µM

Structure (SMILES): COc1ccc(C2COc3cc(O)c(O)cc3C2)cc1 (stereo not drawn)
- TGI [4]: 24.6 µM
- TGI [5]: 163 µM
- TGI [6]: 24 µM
- TGI [7]: 49.9 µM
- TGI [8]: 99.3 µM
- TGI [9]: 176 µM
- TGI [10]: 232 µM

Structure (SMILES): Nc1ccn(C2OC(CO)C(O)C2O)c(=O)c1 (stereo not drawn)
- TGI [5]: > 625 µM
- TGI [6]: > 625 µM
- TGI [8]: > 625 µM
- TGI [9]: > 625 µM
- TGI [10]: 403 µM

Structure (SMILES): O=C(O)c1ccc(OCc2nc3cc(C(F)(F)F)ccc3nc2-c2ccccc2)cc1
- TGI [1]: > 100 µM
- TGI [2]: > 100 µM
- TGI [3]: > 100 µM
- TGI [6]: > 100 µM
- TGI [7]: > 100 µM
- TGI [8]: > 100 µM
- TGI [9]: > 100 µM
- TGI [11]: > 100 µM
- TGI [10]: > 100 µM

Structure (SMILES): CC1=NNC(=O)C1C(CC(=O)c1c[nH]c2ccccc12)C(=O)O (stereo not drawn)
- TGI [1]: > 100 µM
- TGI [2]: > 100 µM
- TGI [3]: > 100 µM
- TGI [4]: > 100 µM
- TGI [5]: > 100 µM
- TGI [6]: > 100 µM
- TGI [7]: > 100 µM
- TGI [8]: > 100 µM
- TGI [11]: > 100 µM
- TGI [10]: > 100 µM

Structure (SMILES): O=c1c(C(c2ccc(Cl)cc2)c2c(O)c3ccccc3n(-c3ccccc3)c2=O)c(O)c2ccccc2n1-c1ccccc1
- TGI [4]: > 100 µM
- TGI [5]: > 100 µM
- TGI [6]: > 100 µM
- TGI [7]: 91.1 µM
- TGI [8]: > 100 µM
- TGI [10]: > 100 µM

Structure (SMILES): O=C1C(=Cc2ccccc2O)N=C(c2ccccc2)N1n1c(-c2ccccc2)nc2ccccc2c1=O
- TGI [1]: 89.9 µM
- TGI [2]: > 100 µM
- TGI [3]: > 100 µM
- TGI [4]: 77.7 µM
- TGI [5]: > 100 µM
- TGI [7]: > 100 µM
- TGI [8]: > 100 µM
- TGI [9]: 64.3 µM
- TGI [11]: > 100 µM
- TGI [10]: 96.8 µM

Structure (SMILES): CCC/C(Cl)=N\OC(=O)Nc1ccc(OC(F)(F)F)cc1
- TGI [1]: 56.6 µM
- TGI [2]: > 70.7 µM
- TGI [3]: 25.8 µM
- TGI [4]: 4.59 µM
- TGI [5]: 34.2 µM
- TGI [6]: 4.48 µM
- TGI [7]: 40.1 µM
- TGI [9]: 40.3 µM
- TGI [11]: 28.2 µM
- TGI [10]: 35.5 µM

Structure (SMILES): COc1cc2c3c(c1OC)C1(C=CC(=O)C=C1)C[C@H]3N(C)CC2
- TGI [4]: > 100 µM
- TGI [5]: > 100 µM
- TGI [6]: > 100 µM
- TGI [7]: > 100 µM
- TGI [8]: > 100 µM

Structure (SMILES): CSc1sc2ccccc2[s+]1
- TGI [4]: > 100 µM
- TGI [5]: > 100 µM
- TGI [6]: > 100 µM
- TGI [8]: > 100 µM
- TGI [10]: > 100 µM

Structure (SMILES): CC(=O)O[C@]12CCCCCC1C1(O)C(O)CCCC[C@H]12 (stereo partly drawn)
- TGI [4]: > 100 µM
- TGI [5]: > 100 µM
- TGI [7]: > 100 µM
- TGI [8]: > 100 µM
- TGI [10]: > 100 µM

Structure (SMILES): C=CCOc1ccc(C2C(C(=O)OCC)C(=O)CC(C)(O)C2C(=O)OCC)cc1OC (stereo not drawn)
- TGI [1]: > 100 µM
- TGI [2]: > 100 µM
- TGI [3]: > 100 µM
- TGI [4]: > 100 µM
- TGI [6]: > 100 µM
- TGI [7]: > 100 µM
- TGI [8]: > 100 µM
- TGI [9]: > 100 µM
- TGI [11]: > 100 µM
- TGI [10]: > 100 µM

Structure (SMILES): Cn1c2ccccc2c(=O)c2cccc(C(=O)NC(CCCN=C(N)N)C(=O)O)c21 (stereo not drawn)
- TGI [1]: > 100 µM
- TGI [2]: > 100 µM
- TGI [3]: > 100 µM
- TGI [4]: > 100 µM
- TGI [5]: > 100 µM
- TGI [7]: > 100 µM
- TGI [8]: > 100 µM
- TGI [9]: > 100 µM
- TGI [11]: > 100 µM
- TGI [10]: > 100 µM

Structure (SMILES): CC1CCCC(CC(=O)O)(CC(=O)O)C1 (stereo not drawn)
- TGI [1]: > 100 µM
- TGI [2]: > 100 µM
- TGI [3]: > 100 µM
- TGI [4]: > 100 µM
- TGI [6]: > 100 µM
- TGI [7]: > 100 µM
- TGI [8]: > 100 µM
- TGI [9]: > 100 µM
- TGI [11]: > 100 µM

Structure (SMILES): CC(=O)NC1c2ccccc2C(C)(C)C12CCC1(CC2)OCCO1 (stereo not drawn)
- TGI [1]: > 100 µM
- TGI [2]: > 100 µM
- TGI [3]: > 100 µM
- TGI [4]: > 100 µM
- TGI [5]: > 10 µM
- TGI [7]: > 100 µM
- TGI [8]: > 100 µM
- TGI [9]: > 100 µM
- TGI [11]: > 100 µM
- TGI [10]: > 100 µM

Structure (SMILES): CSc1ncnc2c1ncn2CCC#N
- TGI [2]: > 100 µM
- TGI [3]: > 100 µM
- TGI [4]: > 100 µM
- TGI [5]: > 100 µM
- TGI [6]: > 100 µM
- TGI [7]: > 100 µM
- TGI [9]: > 100 µM
- TGI [11]: > 100 µM
- TGI [10]: > 100 µM

Structure (SMILES): O=NN(CCCl)C(=O)NC1CCC(O)CC1 (stereo not drawn)
- TGI [4]: 68.4 µM
- TGI [5]: > 100 µM
- TGI [6]: 31.9 µM
- TGI [7]: > 100 µM
- TGI [8]: 58.2 µM
- TGI [9]: > 100 µM
- TGI [10]: > 100 µM

Structure (SMILES): CCNC(=O)Nc1cccc(NC(=O)NCC)n1
- TGI [1]: > 100 µM
- TGI [2]: > 100 µM
- TGI [3]: > 100 µM
- TGI [4]: > 100 µM
- TGI [5]: > 100 µM
- TGI [6]: > 100 µM
- TGI [7]: > 100 µM
- TGI [9]: > 100 µM
- TGI [11]: > 100 µM
- TGI [10]: > 100 µM

Structure (SMILES): O=[N+]([O-])/C(C(Cl)=C(Cl)Cl)=C(\N1CCCCC1)n1cncn1
- TGI [1]: 31.6 µM
- TGI [2]: 28.2 µM
- TGI [3]: 30.1 µM
- TGI [4]: > 50.5 µM
- TGI [5]: 37.3 µM
- TGI [7]: 31.6 µM
- TGI [8]: 38.1 µM
- TGI [9]: 50.6 µM
- TGI [11]: 32.8 µM
- TGI [10]: 37.7 µM

Structure (SMILES): O=c1oc2ccc([N+](=O)[O-])cc2c(Nc2ccc3c(c2)Oc2ccccc2O3)c1[N+](=O)[O-]
- TGI [1]: > 100 µM
- TGI [2]: > 100 µM
- TGI [3]: 37 µM
- TGI [5]: > 100 µM
- TGI [6]: 54.1 µM
- TGI [7]: > 100 µM
- TGI [8]: > 100 µM
- TGI [9]: 67.5 µM
- TGI [11]: > 100 µM
- TGI [10]: > 100 µM

Structure (SMILES): Cc1ccc(S(=O)(=O)C(C#N)c2nc3ccccc3nc2-n2ccnc2)cc1 (stereo not drawn)
- TGI [4]: > 100 µM
- TGI [5]: > 100 µM
- TGI [6]: > 100 µM
- TGI [7]: > 100 µM
- TGI [8]: > 100 µM
- TGI [10]: > 100 µM
